According to patent US20220378764A1, “[…] OF A GENE ENCODING A CYTOCHROME P450 PROTEIN BY TREATING A HUMAN SUBJECT WITH A NITROXIDE” (priority 2021, published 2022):

Tested on: fifteen genes associated with the cytochrome p450 family
Test: Microarray gene expression in tissue of Tempol-fed mice, overall statement
Format: in vivo
Details: 5 mg/g of food from 14 to 31 months after birth, cardiac tissue, vs control mice
Procedure: Mice receiving the same food without the addition of Tempol were used as a negative control. At the age of 31 months, the experimental animals were sacrificed and the hearts were surgically removed. The expression of a broad spectrum of genes in the cardiac tissue was assessed using chip-based microarray technology. Such chips are well known in the art and are widely used to assess gene expression.

With `CC1(C)CC(O)CC(C)(C)N1[O]` [Tempol, 4-hydroxy-2,2,6,6-tetramethylpiperidine-1-oxyl] the “Expression of fifteen genes associated with the cytochrome p450 family” value was “statistically significant increase in expression”.
